In PMC10518257 (Nature Cancer, 2023):
Several values for one entry are separate records, joined by “and”; a condition that tells them apart may be missing. Equal values may be shown once. Read-outs that look alike come from different tables or passages of the source.

How the values were obtained:
LUAD-0086AS3 cells = assay: Growth inhibition (alamarBlue, 96 h); type: cell-based, human; conditions: for raw viability signal (Source Data Fig. 3b-c): LUAD-0086AS3 (n=1, 3 replicates)
LUAD-0077AS1 PDX = assay: PDX efficacy study; type: in vivo, NSG mice; parameters: Tumor volume: unit not given here; conditions: for Area Under Curve Mean: Fig. 6b LUAD-0077AS1 tumor growth; for Change in tumor volume (block without heading, Fig. 6b) / Tumor volume: LUAD-0077AS1, individual animals
[1] = test system: Ba/F3 KIF5B–RET^WT allograft tumors; assay: Subcutaneous allograft efficacy study; type: in vivo, BALB/c nude mice; conditions: Ba/F3-KIF5B::RET, Ext. Data Fig. 9b
Ba/F3-CCDC6::RET = assay: Growth inhibition assay in Ba/F3 cells (CellTiter-Glo, 72 h); type: cell-based
[2] = test system: Ba/F3 cells expressing KIF5B–RET^G810C; assay: as above; type: cell-based; conditions: replicate Sets 1-3
HBECp53-EV cells = assay: Growth inhibition (alamarBlue, 96 h); type: cell-based, human; conditions: HBEC-EV, replicate sets

For `CO[C@]1(C(=O)N[C@@H](C)c2ccc(-n3cc(F)cn3)nc2)CC[C@H](c2nc(C)cc(Nc3cc(C)[nH]n3)n2)CC1` [Pralsetinib], the IC50 (LUAD-0086AS3 cells; Homo sapiens, 96 h, read-out: IC50 for Inhibition of Growth (95% CI)) was 121 nM, the “raw viability signal (Source Data Fig. 3b-c)” value (shortened to “raw viability signal”) (LUAD-0086AS3 cells; 0.01 nM) was 31309.7 and 31098.7 and 34263.2 and the “raw viability signal” value (LUAD-0086AS3 cells; 0.1 nM) was 29924.8 and 30921.2 and 29063.2. The “raw viability signal” value (LUAD-0086AS3 cells; 1 nM) was 27745.6 and 30045.6 and 27962.9, the “raw viability signal” value (LUAD-0086AS3 cells; 10 nM) was 27211.8 and 27719.7 and 26448.1 and the “raw viability signal” value (LUAD-0086AS3 cells; 100 nM) was 16795 and 17102.3 and 12766. For the same molecule, the “raw viability signal” value (LUAD-0086AS3 cells; 1000 nM) was 14016.5 and 12908.6 and 9876.85, the “raw viability signal” value (LUAD-0086AS3 cells; 10000 nM) was 5069.85 and 4707.96 and 4562.26 and the “Area Under Curve Mean” value (LUAD-0077AS1 PDX; 15 mg/kg BID) was 189.7. The “Area Under Curve Mean” value (LUAD-0077AS1 PDX; 30 mg/kg BID) was -512.3, the “Change in tumor volume (block without heading, Fig. 6b)” value (LUAD-0077AS1 PDX; 15 mg/kg BID) was 31.8218 and 17.159 and 11.071 and 13.2706 and -8.805 and the Tumor volume (LUAD-0077AS1 PDX; 15 mg/kg BID, treatment day 0) was 88.7 (3×) and 87.11 (2×). The Tumor volume (LUAD-0077AS1 PDX; 15 mg/kg BID, treatment day 4) was 88.7 (4×) and 87.11, the Tumor volume (LUAD-0077AS1 PDX; 15 mg/kg BID, treatment day 7) was 88.7 (2×) and 80.89 and 77.87 and 90.28 and the Tumor volume (LUAD-0077AS1 PDX; 15 mg/kg BID, treatment day 11) was 66.76 and 80.89 (2×) and 42.6 and 72.18. For the same molecule, the Tumor volume (LUAD-0077AS1 PDX; 15 mg/kg BID, treatment day 14) was 70.82 and 80.89 and 64.12 and 83.97 and 73.54, the Tumor volume (LUAD-0077AS1 PDX; 15 mg/kg BID, treatment day 19) was 80.89 and 98.67 and 103.92 and 114.83 and 98.52 and the Tumor volume (LUAD-0077AS1 PDX; 15 mg/kg BID, treatment day 22) was 150.13 and 109.36 and 130.83 and 152.27 and 164.53. For the same molecule, the Tumor volume (LUAD-0077AS1 PDX; 15 mg/kg BID, treatment day 25) was 166.88 and 122.74 and 141.32 and 205.88 and 187.29, the “Change in tumor volume (block without heading, Fig. 6b)” value (LUAD-0077AS1 PDX; 30 mg/kg BID) was -26.3021 and -30.7542 and -32.7343 and -33.6127 and -36.9233 and the Tumor volume (LUAD-0077AS1 PDX; 30 mg/kg BID, treatment day 0) was 88.7 and 87.11 (2×) and 82.36 (2×). For the same molecule, the Tumor volume (LUAD-0077AS1 PDX; 30 mg/kg BID, treatment day 4) was 88.7 (2×) and 87.11 and 82.36 and 83.97, the Tumor volume (LUAD-0077AS1 PDX; 30 mg/kg BID, treatment day 7) was 72.18 and 70.82 and 68.07 and 66.76 and 74.9 and the Tumor volume (LUAD-0077AS1 PDX; 30 mg/kg BID, treatment day 11) was 57.83 (2×) and 60.32 (2×) and 64.12. For the same molecule, the Tumor volume (LUAD-0077AS1 PDX; 30 mg/kg BID, treatment day 14) was 52.07 and 53.01 (2×) and 50.68 and 49.83, the Tumor volume (LUAD-0077AS1 PDX; 30 mg/kg BID, treatment day 19) was 65.37 and 57.83 and 55.4 and 60.32 and 51.95 and the Tumor volume (LUAD-0077AS1 PDX; 30 mg/kg BID, treatment day 22) was 65.37 and 48.41 and 53.01 and 51.95 (2×). The Tumor volume (LUAD-0077AS1 PDX; 30 mg/kg BID, treatment day 25) was 65.37 and 83.97 and 60.32 and 53.01 and 55.4, the “Tumor Volume Mean” value ([1]; 3 mg/kg BID, Day 1) was 221.52 mm3 and the “Tumor Volume Mean” value ([1]; 3 mg/kg BID, Day 4) was 379.17 mm3. The “Tumor Volume Mean” value ([1]; 3 mg/kg BID, Day 8) was 482.68 mm3, the “Tumor Volume Mean” value ([1]; 3 mg/kg BID, Day 11) was 745.24 mm3 and the “Tumor Volume Mean” value ([1]; 3 mg/kg BID, Day 15) was 1198.84 mm3. The “Tumor Volume Mean” value ([1]; 10 mg/kg BID, Day 1) was 212.85 mm3, the “Tumor Volume Mean” value ([1]; 10 mg/kg BID, Day 4) was 215.66 mm3 and the “Tumor Volume Mean” value ([1]; 10 mg/kg BID, Day 8) was 297.15 mm3. For the same molecule, the “Tumor Volume Mean” value ([1]; 10 mg/kg BID, Day 11) was 403.26 mm3, the “Tumor Volume Mean” value ([1]; 10 mg/kg BID, Day 15) was 433.99 mm3 and the “Tumor Volume Mean” value ([1]; 30 mg/kg BID, Day 1) was 218.49 mm3. For the same molecule, the “Tumor Volume Mean” value ([1]; 30 mg/kg BID, Day 4) was 127.84 mm3, the “Tumor Volume Mean” value ([1]; 30 mg/kg BID, Day 8) was 80.68 mm3 and the “Tumor Volume Mean” value ([1]; 30 mg/kg BID, Day 11) was 53.52 mm3. The “Tumor Volume Mean” value ([1]; 30 mg/kg BID, Day 15) was 67.12 mm3, the “Tumor Volume Mean” value ([1]; 60 mg/kg BID, Day 1) was 225.80 mm3 and the “Tumor Volume Mean” value ([1]; 60 mg/kg BID, Day 4) was 95.08 mm3. For the same molecule, the “Tumor Volume Mean” value ([1]; 60 mg/kg BID, Day 8) was 69.89 mm3, the “Tumor Volume Mean” value ([1]; 60 mg/kg BID, Day 11) was 52.39 mm3 and the “Tumor Volume Mean” value ([1]; 60 mg/kg BID, Day 15) was 58.70 mm3. The GI50 (Ba/F3-CCDC6::RET; BaF3/CCDC6-RET, 72 h, read-out: GI50 value (Mean ± SD), Ba/F3-CCDC6::RET, CellTiter-Glo, 72 h) was 19.9 ± 10.6 nM, the GI50 (Ba/F3-CCDC6::RET; read-out: GI50 values, Ba/F3-CCDC6::RET, individual sets (replicate experiments)) was 11.8 nM and 31.9 nM and 15.9 nM and the GI50 ([2]; Ba/3-KIF5B-RET-G810C) was 44.4 nM. The GI50 ([2]; Mus musculus, BaF3, Ba/3-KIF5B-RET-G810C) was 66.9 nM, the “raw viability signal” value (HBECp53-EV cells; 0.01 nM) was 18620.9 (2×) and 26084.1 and 32208.8 and the “raw viability signal” value (HBECp53-EV cells; 0.1 nM) was 18754 (2×) and 26388.7 and 34047.4. For the same molecule, the “raw viability signal” value (HBECp53-EV cells; 1 nM) was 20833.4 (2×) and 23057.6 and 32620.9, the “raw viability signal” value (HBECp53-EV cells; 10 nM) was 19432.8 (2×) and 24252.3 and 33045.2 and the “raw viability signal” value (HBECp53-EV cells; 100 nM) was 20060.8 (2×) and 26236.5 and 33461.6. For the same molecule, the “raw viability signal” value (HBECp53-EV cells; 1000 nM) was 13712.5 (2×) and 19031.7 and 36040.1 and the “raw viability signal” value (HBECp53-EV cells; 10000 nM) was 6305.27 (2×) and 11469.7 and 22649.7.
